22 molecules from patent US10000484B2, “Inhibitors of the renal outer medullary potassim channel” (MERCK SHARP & DOHME CORP., priority 2013, dated 2018) can be followed below.

The assay concerns the target T1, hROMK (hKir1.1) (Homo sapiens, UniProt P48048).
T1 construct: expressed in transfected cells
T1 sequence (P48048 1-391): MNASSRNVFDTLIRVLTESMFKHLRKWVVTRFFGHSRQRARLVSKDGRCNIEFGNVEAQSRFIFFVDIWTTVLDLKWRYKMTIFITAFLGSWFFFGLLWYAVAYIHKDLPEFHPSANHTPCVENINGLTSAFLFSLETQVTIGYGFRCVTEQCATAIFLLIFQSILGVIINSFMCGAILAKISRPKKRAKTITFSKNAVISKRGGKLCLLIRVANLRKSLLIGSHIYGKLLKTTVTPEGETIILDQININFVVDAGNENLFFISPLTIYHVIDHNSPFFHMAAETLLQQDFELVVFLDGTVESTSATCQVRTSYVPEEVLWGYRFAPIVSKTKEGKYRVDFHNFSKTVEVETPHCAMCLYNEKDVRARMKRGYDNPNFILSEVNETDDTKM
The assay is described as follows: Thallium Flux Assay (ROMK channel functional thallium flux assay, FLIPR-Tetra). Format: cell-based. Conditions: HEK293 cells stably expressing hROMK; 30 min incubation with compound. The method, then: The following Thallium Flux Assay was performed on each of the final product compounds in the Examples. When the final product of an Example was an HCl salt, the salt was run in the Assay.
HEK293 cells stably expressing hROMK (hKir1.1) were grown at 37° C. in a 10% CO2 humidified incubator in complete growth media: Dulbecco's Modified Eagle Medium supplemented with non-essential amino acids, Penicillin/Streptomycin/Glutamine, G418 and FBS. At >80% confluency, aspirate the media from the flask and rinse with 10 mL Calcium/Magnesium-free PBS. Add 5 mL of 1× trypsin (prepared in Ca/Mg Free PBS) to T-225 flask and return flask to 37° C./CO2 incubator for 2-3 minutes. To dislodge the cell, gently bang the side of the flask with your hand. Triturate the cells completely and then transfer the cells to 25 mL complete media. Centrifuge at 1,500 rpm for 6 min followed by resuspension in complete growth media and determine cell concentration. For typical re-seeding, 4E6 cells/T-225 flask will attain >80% confluency in 4 days. Under ideal growth conditions and appropriate tissue culture practices, this cell line is stable for 40-45 passages.
FluxOR Kit Components (Invitrogen F10017)
• FluxOR™ Reagent (Component A) • FluxOR™ Assay Buffer (Component B)—10× Concentrate • PowerLoad™ Concentrate (Component C)—100× Concentrate • Probenecid (Component D)—Lyophilized sample is kept at −20° C. Water soluble, 100× after solubilization in 1 mL water. Store at 4° C. • FluxOR™ Chloride-free Buffer (Component E)—5× Concentrate • Potassium sulfate (K2SO4) Concentrate (Component F)—125 mM in water. Store at 4° C. • Thallium sulfate (Tl2SO4) Concentrate (Component G)—50 mM in water. Store at 4° C. • DMSO (dimethyl sulfoxide, Component H)—1 mL (100%) Reagent Preparation: FluxOR Working Solutions • 1000× FluxOR™ Reagent: Reconstitute a vial of component A in 100 μl DMSO; Mix well; Store 10 μl aliquots at −20° C. • 1× FluxOR™ Assay Buffer: Dilute Component B 10-fold with water; Adjust pH to 7.4 with Hepes/NaOH; Filter and store at 4° C. • Probenecid/Assay Buffer: 100 mL of 1× FluxOR™ Assay Buffer; 1 mL of reconstituted component D; Store at 4° C. • Loading Buffer (per microplate): 10 μl 1000× FluxOR™ Reagent; 100 μl component C; 10 mL Probenecid/Assay Buffer • Compound Buffer (per microplate): 20 mL Probenecid/Assay Buffer; 0.3 mM ouabain (10 mM ouabain in water can be stored in amber bottle/aluminum foil at room temperature); Test compound • 1× FluxOR™ Chloride-Free Buffer: Prepare 1× working solution in water. Can be stored at room temperature • Stimulant Buffer (prepared at 5× final concentration in 1× FluxOR™ Chloride-Free Buffer): 7.5 mM Thallium sulfate and 0.75 mM Potassium sulfate (to give a final assay concentration of 3 mM Thallium/0.3 mM Potassium). Store at 4° C. when not in use. Assay Protocol—
The ROMK channel functional thallium flux assay is performed in 384 wells, using the FLIPR-Tetra instrument. HEK-hKir1.1 cells are seeded in Poly-D-Lysine microplates and kept in a 37° C.-10% CO2 incubator overnight. On the day of the experiment, the growth media is replaced with the FluxOR™ reagent loading buffer and incubated, protected from light, at ambient temperature (23-25° C.) for 90 min. The loading buffer is replaced with assay buffer±test compound followed by 30 min incubation at ambient temperature, where the Thallium/Potassium stimulant is added to the microplate.
1. Seed HEK-hKir1.1 cells (50 μl at 20,000 cells/well) in 384-well PDL coated Microplates
2. Allow cells to adhere overnight in humidified 37° C./10% CO2 incubator
3. Completely remove cell growth media from microplate and replace with 25 μl loading buffer
4. Incubate Microplate at room temperature, protected form light, for 90 min
5. Remove loading buffer and replace with 25 μl 1× Assay Buffer±test compound.
6. Incubate microplate at room temperature, protected from light, for 30 min
7. At FLIPR-Tetra 384: Add stimulant (Thallium/Potassium) solution to microplate and monitor fluorescence. […]
Take `C[C@H]1Cc2cc(CCN3CCn4cc(-c5ccc6c(c5)COC6=O)nc4C3)ccc2C(=O)O1` [Example 19, (3S)-3-methyl-6-{2-[2-(1-oxo-1,3-dihydro-2-benzofuran-5-yl)-5,6-dihydroimidazo[1,2-a]pyrazin-7(8H)-yl]ethyl}-3,4-dihydro-1H-isochromen-1-one]: the IC50 (in general, the concentration that gives 50% inhibition) came to 198 nM. Next, `Cc1c(C(O)CN2CCc3nc(-c4ccc(C#N)cc4F)ncc3C2)ccc2c1COC2=O` (stereo not shown) [Example 41, 3-fluoro-4-{6-[2-hydroxy-2-(4-methyl-1-oxo-1,3-dihydro-2-benzofuran-5-yl)ethyl]-5,6,7,8-tetrahydropyrido[4,3-d]pyrimidin-2-yl}benzonitrile]: 463 nM; `Cc1c(CCN2CCn3c(nn(-c4ccc(C#N)c(F)c4)c3=O)C2)ccc2c1COC2=O` [Example 24, 2-fluoro-4-{7-[2-(4-methyl-1-oxo-1,3-dihydro-2-benzofuran-5-yl)ethyl]-3-oxo-5,6,7,8-tetrahydro[1,2,4]triazolo[4,3-a]pyrazin-2(3H)-yl}benzonitrile]: 177 nM.

With `Cc1c(CCN2CCc3c(cnn3-c3ccc(C#N)c(F)c3)C2)ccc2c1COC2=O` [Example 30, 2-fluoro-4-(5-(2-(4-methyl-1-oxo-1,3-dihydroisobenzofuran-5-yl)ethyl)-4,5,6,7-tetrahydro-1H-pyrazolo[4,3-c]pyridin-1-yl)benzonitrile], the IC50 worked out at 27.5 nM. Next, `Cc1c([C@@H](O)CN2CCN3CC(c4ccc5c(c4)C[C@@H](C)OC5=O)C[C@H]3C2)ccc2c1COC2=O` (stereo partly drawn) [Example 46, (3R)-6-{(8aS)-2-[(2R)-2-hydroxy-2-(4-methyl-1-oxo-1,3-dihydro-2-benzofuran-5-yl)ethyl]octahydropyrrolo[1,2-a]pyrazin-7-yl}-3-methyl-3,4-dihydro-1H-isochromen-1-one]: 81.4 nM; `Cc1c(C(O)CN2CCc3c(cnn3-c3ccc4c(c3)COC4=O)C2)ccc2c1COC2=O` (stereo not shown) [Example 33, 5-{1-hydroxy-2-[1-(1-oxo-1,3-dihydro-2-benzofuran-5-yl)-1,4,6,7-tetrahydro-5H-pyrazolo[4,3-c]pyridin-5-yl]ethyl}-4-methyl-2-benzofuran-1(3H)-one]: 67 nM; `N#Cc1ccc(-n2cc3c(n2)CCN(CCc2ccc4c(c2)COC4=O)C3)cc1` [Example 5, 4-{5-[2-(1-oxo-1,3-dihydro-2-benzofuran-5-yl)ethyl]-4,5,6,7-tetrahydro-2H-pyrazolo[4,3-c]pyridin-2-yl}benzonitrile]: 43.8 nM. Next, `COc1ccc(-c2ncc3c(n2)CCN(CCc2ccc4c(c2C)COC4=O)C3)cc1C#N` [Example 23]: 208 nM; `Cc1c(C(O)CN2CCn3c(nn(-c4ccc(C#N)c(F)c4)c3=O)C2)ccc2c1COC2=O` (stereo not shown) [Example 36, 2-fluoro-4-{7-[2-hydroxy-2-(4-methyl-1-oxo-1,3-dihydro-2-benzofuran-5-yl)ethyl]-3-oxo-5,6,7,8-tetrahydro[1,2,4]triazolo[4,3-a]pyrazin-2(3H)-yl}benzonitrile]: 163 nM.

For the molecule `Cc1c(CCN2CC[C@@H]3[C@@H](C2)OC(=O)N3Cc2ccc3c(c2C)COC3=O)ccc2c1COC2=O` [Example 29], the IC50 worked out at 201 nM.

On to `Cc1c(CCN2CCc3nc(-c4ccc5c(c4)COC5=O)oc3C2)ccc2c1COC2=O` [Example 18, 4-methyl-5-{2-[2-(1-oxo-1,3-dihydro-2-benzofuran-5-yl)-6,7-dihydro[1,3]oxazolo[5,4-c]pyridin-5(4H)-yl]ethyl}-2-benzofuran-1(3H)-one], for which the IC50 turned out to be 74.7 nM. Turning to `Cc1c(CCN2CCn3c(-c4ccc5c(c4)COC5=O)cnc3C2)ccc2c1COC2=O` [Example 12, 4-methyl-5-{2-[3-(1-oxo-1,3-dihydro-2-benzofuran-5-yl)-5,6-dihydroimidazo[1,2-a]pyrazin-7(8H)-yl]ethyl}-2-benzofuran-1(3H)-one], the IC50 was found to be 124 nM.

In the case of `Cc1c(CCN2CCc3nc(-c4ccc(F)c(C#N)c4)ncc3C2)ccc2c1COC2=O` [Example 22], the IC50 amounted to 441 nM. Next, `Cc1c(C(O)CN2CCn3c(nn(-c4ccc5c(c4)COC5=O)c3=O)C2)ccc2c1COC2=O` (stereo not shown) [Example 37, 7-[2-hydroxy-2-(4-methyl-1-oxo-1,3-dihydro-2-benzofuran-5-yl)ethyl]-2-(1-oxo-1,3-dihydro-2-benzofuran-5-yl)-5,6,7,8-tetrahydro[1,2,4]triazolo[4,3-a]pyrazin-3(2H)-one]: 291 nM; `Cc1c(CCN2CCn3c(nn(-c4ccc5c(c4)COC5=O)c3=O)C2)ccc2c1COC2=O` [Example 25, 7-[2-(4-methyl-1-oxo-1,3-dihydro-2-benzofuran-5-yl)ethyl]-2-(1-oxo-1,3-dihydro-2-benzofuran-5-yl)-5,6,7,8-tetrahydro[1,2,4]triazolo[4,3-a]pyrazin-3(2H)-one]: 92.8 nM; `Cc1c(CCN2CCc3nc(-c4ccc(-n5cnnn5)cc4)ncc3C2)ccc2c1COC2=O` [Example 7, 6-[2-(4-methyl-1-oxo-1,3-dihydro-2-benzofuran-5-yl)ethyl]-2-[4-(1H-tetrazol-1-yl)phenyl]-5,6,7,8-tetrahydropyrido[4,3-d]pyrimidine-1,6-diium]: 168 nM. Next, `Cc1c(CCN2CC[C@H]3[C@@H](C2)OC(=O)N3Cc2ccc3c(c2C)COC3=O)ccc2c1COC2=O` [Example 28]: 113 nM; `Cc1c(C(O)CN2CCc3nc(-c4ccc(C#N)c(F)c4)ncc3C2)ccc2c1COC2=O` (stereo not shown) [Example 38, 2-fluoro-4-{6-[2-hydroxy-2-(4-methyl-1-oxo-1,3-dihydro-2-benzofuran-5-yl)ethyl]-5,6,7,8-tetrahydropyrido[4,3-d]pyrimidin-2-yl}benzonitrile]: 82 nM; `COc1cc(-c2ncc3c(n2)CCN(CCc2ccc4c(c2C)COC4=O)C3)ccc1C#N` [Example 11, 2-methoxy-4-{6-[2-(4-methyl-1-oxo-1,3-dihydro-2-benzofuran-5-yl)ethyl]-5,6,7,8-tetrahydropyrido[4,3-d]pyrimidin-2-yl}benzonitrile]: 83.8 nM. Next, `Cc1c(CCN2CCn3nc(-c4ccc5c(c4)COC5=O)nc3C2)ccc2c1COC2=O` [Example 16, 4-methyl-5-{2-[2-(1-oxo-1,3-dihydro-2-benzofuran-5-yl)-5,6-dihydro[1,2,4]triazolo[1,5-a]pyrazin-7(8H)-yl]ethyl}-2-benzofuran-1(3H)-one]: 89 nM.

Regarding `COc1cc(-c2cn3c(n2)CN(CC(O)c2ccc4c(c2C)COC4=O)CC3)ccc1C#N` (stereo not shown) [Example 35, 4-{7-[2-hydroxy-2-(4-methyl-1-oxo-1,3-dihydro-2-benzofuran-5-yl)ethyl]-5,6,7,8-tetrahydroimidazo[1,2-a]pyrazin-2-yl}-2-methoxybenzonitrile], the IC50 was determined as 154 nM. Next, `Cc1c(CCN2CCc3nc(-c4ccc(C#N)cc4F)ncc3C2)ccc2c1COC2=O` [Example 26]: 314 nM.
